In ChEMBL document CHEMBL1201862, “PubChem BioAssay data set” (2004):
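All cell lines were grown in 96-well plates and treated with compound for 48 hours. GI50 = concentration required for 50% inhibition of growth.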 Active and inactive are the calls of the source. Cut-off read from the data, not from the text of the source: active = GI50 up to about 1.1 µM and inactive = higher.

How the values were obtained:
Test in all cases: inhibition of tumour cell growth, NCI panel, 48 h
[1] = system: CAKI-1
[2] = system: HCC 2998
[3] = system: HL-60
[4] = system: M19-MEL
[5] = system: NCI-H226
[6] = system: OVCAR-5
[7] = system: OVCAR-8
[8] = system: RXF 393
[9] = system: SF-268
[10] = system: SF-539
[11] = system: SK-MEL-5
[12] = system: SK-OV-3
[13] = system: SNB-19
[14] = system: SNB-75
[15] = system: TK-10
[16] = system: UACC-257
[17] = system: Hs-578T
[18] = system: MCF7
[19] = system: MDA-MB-435
[20] = system: T47D

SMILES | GI50 [1] | GI50 [2] | GI50 [3] | GI50 [4] | GI50 [5] | GI50 [6] | GI50 [7] | GI50 [8] | GI50 [9] | GI50 [10] | GI50 [11] | GI50 [12] | GI50 [13] | GI50 [14] | GI50 [15] | GI50 [16] | GI50 [17] | GI50 [18] | GI50 [19] | GI50 [20]
O=C(CCC(=O)Nc1ccc(Cl)c(Cl)c1)Cc1nc2ccccc2o1 | > 100 µM (inactive) | > 100 µM (inactive) | > 100 µM (inactive) | > 100 µM (inactive) | > 100 µM (inactive) | > 100 µM (inactive) | > 100 µM (inactive) | > 100 µM (inactive) | > 100 µM (inactive) | > 100 µM (inactive) | > 100 µM (inactive) | > 100 µM (inactive) | > 100 µM (inactive) | > 100 µM (inactive) | > 100 µM (inactive) | > 100 µM (inactive) | – | – | – | –
[O-][N+]1=C(c2ccccc2)COc2ccccc21 | > 100 µM (inactive) | > 100 µM (inactive) | > 100 µM (inactive) | > 100 µM (inactive) | > 100 µM (inactive) | > 100 µM (inactive) | > 100 µM (inactive) | > 100 µM (inactive) | > 100 µM (inactive) | > 100 µM (inactive) | > 100 µM (inactive) | > 100 µM (inactive) | > 100 µM (inactive) | > 100 µM (inactive) | > 100 µM (inactive) | > 100 µM (inactive) | – | – | – | –
CNC1=C(C)C(=O)C(C)=C(C(C)(C)CC(=O)n2cc(F)c(=O)[nH]c2=O)C1=O | 22.8 µM (inactive) | 1.16 µM (inactive) | 17.8 µM (inactive) | 49.7 µM (inactive) | 43.4 µM (inactive) | > 100 µM (inactive) | 31.6 µM (inactive) | > 100 µM (inactive) | 55.7 µM (inactive) | 3.97 µM (inactive) | 12.3 µM (inactive) | > 100 µM (inactive) | > 65.8 µM (inactive) | 69.3 µM (inactive) | > 59.3 µM (inactive) | 68.2 µM (inactive) | – | – | – | –
COC(=O)/C([Se]c1c(C)cc(C)cc1C)=C(\[Se]c1c(C)cc(C)cc1C)C(=O)OC | > 100 µM (inactive) | > 100 µM (inactive) | > 100 µM (inactive) | > 100 µM (inactive) | > 100 µM (inactive) | > 100 µM (inactive) | > 100 µM (inactive) | > 100 µM (inactive) | > 100 µM (inactive) | > 10 µM (inactive) | > 100 µM (inactive) | > 100 µM (inactive) | > 100 µM (inactive) | > 100 µM (inactive) | > 100 µM (inactive) | > 100 µM (inactive) | – | – | – | –
CCN(CCCl)CCCCNc1c2ccccc2nc2ccc(OC)cc12 | 0.394 µM (active) | – | 0.0929 µM (active) | 0.235 µM (active) | 0.102 µM (active) | 0.659 µM (active) | 0.305 µM (active) | 0.238 µM (active) | 0.171 µM (active) | 0.653 µM (active) | 0.373 µM (active) | 1.24 µM (inactive) | 0.918 µM (active) | 0.472 µM (active) | 0.92 µM (active) | 2.67 µM (inactive) | 1.22 µM (inactive) | 0.0141 µM (active) | 0.427 µM (active) | 0.191 µM (active)
